Source: US12583854B2, “KRAS G12C inhibitors and methods of using the same” (Amgen Inc., priority 2018, dated 2026)
Where two headings read alike, the source gives them in different places.

Columns and labels:
[1] = biological target: GDP-bound KRAS protein (aa 1-169), containing both G12C and C118A amino acid substitutions (Homo sapiens, UniProt P01116, C118A/G12C); experiment: Coupled Nucleotide Exchange Assay; type: biochemical; settings: 5 min compound pre-incubation; SOS-mediated nucleotide exchange, AlphaScreen
Chain of GDP-bound KRAS protein (aa 1-169), containing both G12C and C118A amino acid substitutions (P01116 1-169 isoform P01116-2 G12C/C118A): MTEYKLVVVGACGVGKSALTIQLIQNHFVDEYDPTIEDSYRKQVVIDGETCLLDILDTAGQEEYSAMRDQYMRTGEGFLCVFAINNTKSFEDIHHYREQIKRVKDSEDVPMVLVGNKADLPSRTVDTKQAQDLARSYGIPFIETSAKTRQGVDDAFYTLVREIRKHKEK
Description: Following compound pre-incubation, purified SOS protein (aa 564-1049) and GTP (Roche 10106399001) were added to the assay wells and incubated for an additional 30 min. To determine the extent of inhibition of SOS-mediated nucleotide exchange, purified GST-tagged cRAF (aa 1-149), nickel chelate AlphaLISA acceptor beads (PerkinElmer AL108R), and AlphaScreen glutathione donor beads (PerkinElmer 6765302) were added to the assay wells and incubated for 10 minutes. The assay plates were then read on a PerkinElmer EnVision Multilabel Reader, using AlphaScreen® technology, and data were analyzed using a 4-parameter logistic model to calculate IC50 values.

[2] = system: Phosphorylation of ERK1/2 in MIA PaCa-2 cells; experiment: Phospho-ERK1/2 MSD Assay; type: cell-based; settings: EGF stimulation 10 ng/mL, 10 min, read-out: p-ERK IC50 (2 h)
Description: Phospho-ERK1/2 MSD Assay: MIA PaCa-2 (ATCC® CRL-1420™) and A549 (ATCC® CCL-185™) cells were cultured in RPMI 1640 Medium (ThermoFisher Scientific 11875093) containing 10% fetal bovine serum (ThermoFisher Scientific 16000044) and 1× penicillin-streptomycin-glutamine (ThermoFisher Scientific 10378016). Sixteen hours prior to compound treatment, MIA PaCa-2 were seeded in 96-well cell culture plates at a density of 25,000 cells/well and incubated at 37° C., 5% CO2. A compound dose-response titration was diluted in growth media, added to appropriate wells of a cell culture plate, and then incubated at 37° C., 5% CO2 for 2 (see Table 10). Following compound treatment, cells were stimulated with 10 ng/mL EGF (Roche 11376454001) for 10 min, washed with ice-cold Dulbecco's phosphate-buffered saline, no Ca^2+ or Mg^2+ (ThermoFisher Scientific 14190144), and then lysed in RIPA buffer (50 mM Tris-HCl pH 7.5, 1% Igepal, 0.5% sodium deoxycholate, 150 mM NaCl, and 0.5% sodium dodecyl sulfate) containing protease inhibitors (Roche 4693132001) and phosphatase inhibitors (Roche 4906837001). Phosphorylation of ERK1/2 in compound-treated lysates was assayed using Phospho-ERK1/2 Whole Cell Lysate kits (Meso Scale Discovery K151DWD) according to the manufacturer's protocol. Assay plates were read on a Meso Scale Discovery Sector Imager 6000, and data were analyzed using a 4-parameter logistic model to calculate IC50 values.

[3] = Homo sapiens, MIA PaCa-2, 2 h compound treatment

With `C=CC(=O)N1CCN(c2c(C#N)c(=O)n(-c3c(C)ccnc3C(C)C)c3nc(-c4ccccc4F)c(Cl)cc23)CC1` [Example 6, 4-(4-Acryloylpiperazin-1-yl)-6-chloro-7-(2-fluorophenyl)-1-(2-isopropyl-4-methylpyridin-3-yl)-2-oxo-1,2-dihydro-1,8-naphthyridine-3-carbonitrile] the “Coupled exchange IC50 (5 min; μM)” value [1] was 0.17 µM and the IC50 ([2]; 2 h compound treatment) was 170 nM.

With `C=CC(=O)N1CCN(c2c(C#N)c(=O)n(-c3c(C)ccnc3C(C)C)c3nc(-c4ccccc4F)c(Cl)cc23)C[C@H]1C` [Example 6.2, (R)-4-(4-acryloyl-3-methylpiperazin-1-yl)-6-chloro-7-(2-fluorophenyl)-1-(2-isopropyl-4-methylpyridin-3-yl)-2-oxo-1,2-dihydro-1,8-naphthyridine-3-carbonitrile] the “Coupled exchange IC50 (5 min; μM)” value [1] was 0.28 µM and the IC50 [2, 3] was 140 nM.

`C=CC(=O)N1CCN(c2c(C#N)c(=O)n(-c3c(C(C)C)ncnc3C(C)C)c3nc(-c4ccccc4F)c(Cl)cc23)CC1` [Example 6.3, 4-(4-acryloylpiperazin-1-yl)-6-chloro-1-(4,6-diisopropylpyrimidin-5-yl)-7-(2-fluorophenyl)-2-oxo-1,2-dihydro-1,8-naphthyridine-3-carbonitrile] was tested, and the “Coupled exchange IC50 (5 min; μM)” value [1] was 0.07 µM and the IC50 [2, 3] was 40 nM.

With `C=CC(=O)N1CCN(c2c(C#N)c(=O)n(-c3c(C)ccnc3C(C)C)c3nc(-c4ccccc4F)c(Cl)cc23)CC1` [Example 6.5, 4-(4-acryloylpiperazin-1-yl)-6-chloro-7-(2-fluorophenyl)-1-(2-isopropyl-4-methylpyridin-3-yl)-2-oxo-1,2-dihydro-1,8-naphthyridine-3-carbonitrile] the “Coupled exchange IC50 (5 min; μM)” value [1] was 0.10 µM and the IC50 ([2]; 2 h compound treatment) was 60 nM.

For `C=CC(=O)N1[C@H](C)CN(c2c(C#N)c(=O)n(-c3c(C)ccnc3C(C)C)c3nc(-c4ccccc4F)c(Cl)cc23)C[C@@H]1C` [Example 7.3, 4-((3R,5S)-4-acryloyl-3,5-dimethylpiperazin-1-yl)-6-chloro-7-(2-fluorophenyl)-1-(2-isopropyl-4-methylpyridin-3-yl)-2-oxo-1,2-dihydro-1,8-naphthyridine-3-carbonitrile], the “Coupled exchange IC50 (5 min; μM)” value [1] was 0.18 µM and the IC50 [2, 3] was 260 nM.

For `C=CC(=O)N1CCN(c2c(C#N)c(=O)n(-c3c(C(C)C)ncnc3C(C)C)c3nc(-c4c(N)cccc4F)c(Cl)cc23)CC1` [Example 11.4, 4-(4-acryloylpiperazin-1-yl)-7-(2-amino-6-fluorophenyl)-6-chloro-1-(4,6-diisopropylpyrimidin-5-yl)-2-oxo-1,2-dihydro-1,8-naphthyridine-3-carbonitrile], the “Coupled exchange IC50 (5 min; μM)” value [1] was 0.13 µM and the IC50 [2, 3] was 90 nM.
